Source: PubChem BioAssay AID248 (DTP/NCI, 2004)
“And” between values parts separate entries of the source, which are not always exact repeats. Equal entries are not always repeated. Inconclusive results and toxic doses are left out. Rule as the data show it: active = T/C of 150% or more; inactive = T/C below 125%.

System: L1210 leukemia ip in BDF1 mice, survival T/C
Test: NCI In Vivo Anticancer Drug Screen. Data for tumor model L1210 Leukemia (intraperitoneal) in B6D2F1 (BDF1) mice
Conditions: endpoint: mean survival time, higher = longer survival
Summary of the method: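 Tumor was transplanted into mice, which were then dosed with test compound or vehicle alone. Survival was recorded for each group, and the treated figure was expressed relative to the control figure.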

[1] = dose: 50.0 mg/kg/injection, schedule: Q01DX009 (ip), vehicle: saline with Tween-80
[2] = dose: 100.0 mg/kg/injection, schedule: Q04DX003 (ip), vehicle: saline with Tween-80
[3] = dose: 200.0 mg/kg/injection, schedule: Q04DX003 (ip), vehicle: saline with Tween-80
[4] = dose: 400.0 mg/kg/injection, schedule: Q04DX003 (ip), vehicle: saline with Tween-80
[5] = dose: 100.0 mg/kg/injection, schedule: Q01DX009 (ip), vehicle: Klucel (hydroxypropylcellulose) (HPC)
[6] = dose: 200.0 mg/kg/injection, schedule: Q01DX009 (ip), vehicle: Klucel (hydroxypropylcellulose) (HPC)
[7] = dose: 400.0 mg/kg/injection, schedule: Q01DX009 (ip), vehicle: Klucel (hydroxypropylcellulose) (HPC)
[8] = dose: 100.0 mg/kg/injection, schedule: Q01DX001 (ip), vehicle: carboxymethylcellulose (CMC)
[9] = dose: 200.0 mg/kg/injection, schedule: Q01DX001 (ip), vehicle: carboxymethylcellulose (CMC)
[10] = dose: 400.0 mg/kg/injection, schedule: Q01DX001 (ip), vehicle: carboxymethylcellulose (CMC)
[11] = dose: 50.0 mg/kg/injection, schedule: Q01DX009 (ip), vehicle: saline
[12] = dose: 12.5 mg/kg/injection, schedule: Q01DX009 (ip), vehicle: saline
[13] = dose: 25.0 mg/kg/injection, schedule: Q01DX009 (ip), vehicle: saline

Measured: T/C

CCN(CC)CCCC(C)NC(=O)c1ccc(Cl)nc1 (configuration not stated)
inactive: [1] 105 % of control | dose: 100.0 mg/kg/injection, schedule: Q01DX009 (ip), vehicle: saline with Tween-80 103 % of control | dose: 200.0 mg/kg/injection, schedule: Q01DX009 (ip), vehicle: saline with Tween-80 95 % of control

O=C(CCNC(=O)OCc1ccccc1)NCC(=O)OCc1ccccc1
inactive: [2] 103 % of control | [3] 97 % of control | [4] 92 % of control

COc1ccc(Nc2nc(N)nc(CNc3ccc(Cl)cc3)n2)cc1
inactive: [2] 98 % of control | [3] 103 % of control | [4] 98 % of control

OC1CCC(c2ccccc2)C1 (configuration not stated)
inactive: dose: 75.0 mg/kg/injection, schedule: Q01DX001 (ip), vehicle: other 98 % of control | dose: 150.0 mg/kg/injection, schedule: Q01DX001 (ip), vehicle: other 97 % of control | dose: 300.0 mg/kg/injection, schedule: Q01DX001 (ip), vehicle: other 106 % of control

Nc1ccc(OC(F)(F)C(F)Cl)cc1 (configuration not stated)
inactive: [5] 97 % of control | dose: 100.0 mg/kg/injection, schedule: Q04DX003 (ip), vehicle: Klucel (hydroxypropylcellulose) (HPC) 97 % of control | [6] 99 % of control | dose: 200.0 mg/kg/injection, schedule: Q04DX003 (ip), vehicle: Klucel (hydroxypropylcellulose) (HPC) 100 % of control | [7] 116 % of control | dose: 400.0 mg/kg/injection, schedule: Q04DX003 (ip), vehicle: Klucel (hydroxypropylcellulose) (HPC) 101 % of control

O=C1N=C2C=CC=CN2CC1O (configuration not stated)
inactive: [2] 88 % of control | [3] 89 % of control | [4] 89 % of control

Cc1ccc(S(=O)(=O)Nc2ncc([N+](=O)[O-])s2)cc1
inactive: dose: 12.5 mg/kg/injection, schedule: Q01DX009 (ip), vehicle: saline with Tween-80 101 % of control | dose: 25.0 mg/kg/injection, schedule: Q01DX009 (ip), vehicle: saline with Tween-80 101 % of control | [1] 98 % of control and 90 % of control

COc1cccc(OC)c1OCCCN1CCOCC1
inactive: dose: 25.0 mg/kg/injection, schedule: Q04DX003 (ip), vehicle: saline with Tween-80 99 % of control | dose: 50.0 mg/kg/injection, schedule: Q04DX003 (ip), vehicle: saline with Tween-80 100 % of control | [2] 94 % of control

O=[N+]([O-])c1cnc(/C=C/c2ccccc2)nc1
inactive: [8] 97 % of control | [9] 95 % of control | [10] 89 % of control

CNc1ncnc2c1cnn2C
inactive: dose: 5.0 mg/kg/injection, schedule: Q01DX015 (ip), vehicle: carboxymethylcellulose (CMC) 88 % of control | dose: 10.0 mg/kg/injection, schedule: Q01DX015 (ip), vehicle: carboxymethylcellulose (CMC) 97 % of control | dose: 20.0 mg/kg/injection, schedule: Q01DX015 (ip), vehicle: carboxymethylcellulose (CMC) 100 % of control | dose: 40.0 mg/kg/injection, schedule: Q01DX015 (ip), vehicle: carboxymethylcellulose (CMC) 93 % of control | dose: 80.0 mg/kg/injection, schedule: Q01DX015 (ip), vehicle: carboxymethylcellulose (CMC) 105 % of control | [8] 101 % of control | [9] 103 % of control | [10] 106 % of control

O=C(O)C(Nc1cccc2ccccc12)c1ccccc1 (configuration not stated)
inactive: dose: 100.0 mg/kg/injection, schedule: Q04DX002 (ip), vehicle: Klucel (hydroxypropylcellulose) (HPC) 97 % of control | dose: 200.0 mg/kg/injection, schedule: Q04DX002 (ip), vehicle: Klucel (hydroxypropylcellulose) (HPC) 111 % of control

Nc1nc2c(ncn2C2OC(COC(=O)c3ccc(Cl)cc3)C(OC(=O)c3ccc(Cl)cc3)C2OC(=O)c2ccc(Cl)cc2)c(=O)[nH]1 (configuration not stated)
inactive: dose: 50.0 mg/kg/injection, schedule: Q01DX001 (ip), vehicle: carboxymethylcellulose (CMC) 95 % of control | [8] 97 % of control | [9] 91 % of control | [10] 97 % of control

CCCCCCCCCC(C)CCCCCC (configuration not stated)
inactive: dose: 75.0 mg/kg/injection, schedule: Q01DX001 (ip), vehicle: saline with Tween-80 100 % of control | dose: 150.0 mg/kg/injection, schedule: Q01DX001 (ip), vehicle: saline with Tween-80 116 % of control | dose: 300.0 mg/kg/injection, schedule: Q01DX001 (ip), vehicle: saline with Tween-80 92 % of control

Cc1cc(C)c2cc3cccc[n+]3cc2c1
inactive: dose: 2.0 mg/kg/injection, schedule: Q01DX015 (ip), vehicle: saline 100 % of control | dose: 4.0 mg/kg/injection, schedule: Q01DX001 (ip), vehicle: carboxymethylcellulose (CMC) 105 % of control | dose: 4.0 mg/kg/injection, schedule: Q01DX015 (ip), vehicle: saline 107 % of control | dose: 8.0 mg/kg/injection, schedule: Q01DX001 (ip), vehicle: carboxymethylcellulose (CMC) 107 % of control | dose: 16.0 mg/kg/injection, schedule: Q01DX001 (ip), vehicle: carboxymethylcellulose (CMC) 107 % of control

ClCOCCCCOCCl
inactive: [11] 114 % of control | dose: 100.0 mg/kg/injection, schedule: Q01DX009 (ip), vehicle: saline 87 % of control

Nc1ccc(I)cc1
inactive: [2] 104 % of control | [3] 109 % of control

CCCCN1C(=O)c2ccccc2C1=O
inactive: dose: 100.0 mg/kg/injection, schedule: Q04DX003 (ip), vehicle: carboxymethylcellulose (CMC) 102 % of control | dose: 200.0 mg/kg/injection, schedule: Q04DX003 (ip), vehicle: carboxymethylcellulose (CMC) 93 % of control | dose: 400.0 mg/kg/injection, schedule: Q04DX003 (ip), vehicle: carboxymethylcellulose (CMC) 101 % of control

Cc1ccc([N+](=O)[O-])cc1NC(=O)OCc1ccco1
inactive: [5] 103 % of control | [6] 97 % of control | [7] 94 % of control

N#Cc1cn(C2OC(CO)C(O)C2O)c2nc(Cl)nc(N)c12 (configuration not stated)
inactive: dose: 7.5 mg/kg/injection, schedule: Q01DX005 (ip), vehicle: saline 114 % of control | dose: 12.5 mg/kg/injection, schedule: Q01DX005 (ip), vehicle: saline 119 % of control | [12] 117 % of control | dose: 21.0 mg/kg/injection, schedule: Q01DX005 (ip), vehicle: saline 108 % of control | dose: 25.0 mg/kg/injection, schedule: Q01DX005 (ip), vehicle: saline 118 % of control | [13] 98 % of control

CN1C(=O)CC2(CCN(CCCC(=O)c3ccc(F)cc3)CC2)C1=O
inactive: dose: 3.12 mg/kg/injection, schedule: Q01DX009 (ip), vehicle: saline 103 % of control and 108 % of control | dose: 6.25 mg/kg/injection, schedule: Q01DX009 (ip), vehicle: Klucel (hydroxypropylcellulose) (HPC) 100 % of control | dose: 6.25 mg/kg/injection, schedule: Q01DX009 (ip), vehicle: saline 100 % of control and 101 % of control and 108 % of control | dose: 12.5 mg/kg/injection, schedule: Q01DX009 (ip), vehicle: Klucel (hydroxypropylcellulose) (HPC) 95 % of control | [12] 106 % of control and 112 % of control and 115 % of control | dose: 25.0 mg/kg/injection, schedule: Q01DX009 (ip), vehicle: Klucel (hydroxypropylcellulose) (HPC) 101 % of control | [13] 110 % of control | dose: 25.0 mg/kg/injection, schedule: Q04DX003 (ip), vehicle: alcohol 108 % of control | dose: 50.0 mg/kg/injection, schedule: Q01DX009 (ip), vehicle: Klucel (hydroxypropylcellulose) (HPC) 110 % of control | [11] 120 % of control and 124 % of control | dose: 50.0 mg/kg/injection, schedule: Q04DX003 (ip), vehicle: alcohol 106 % of control | dose: 100.0 mg/kg/injection, schedule: Q04DX003 (ip), vehicle: alcohol 106 % of control

CCOc1ccccc1NC(=O)c1c(Br)c(Br)c(Br)c(Br)c1C(=O)O
inactive: [5] 102 % of control | [6] 102 % of control
